Results from PubChem BioAssay AID1745844 (Carcinogenic Potency Database (CPDB), 2022).

System: rodent lifetime carcinogenesis bioassay, tumor incidence TD50
Assay: carcinogenic potency in animals, long-term in vivo studies, CPDB compilation (AID 1745844)
Conditions: rat

Structure (SMILES): C=CCl
- TD50 (strain Charles River CD (Sprague-Dawley), females, inhaled, site: liver, lesion: hemangiosarcoma, dosed 26 weeks, study length 78 weeks): 115 mg/kg/day
- TD50 (strain Charles River CD (Sprague-Dawley), females, inhaled, site: liver, lesion: hemangiosarcoma, dosed 43 weeks, study length 95 weeks): 69.5 mg/kg/day
- TD50 (strain Charles River CD (Sprague-Dawley), females, inhaled, site: liver, lesion: hepatocellular carcinoma, dosed 43 weeks, study length 95 weeks): 225 mg/kg/day
- TD50 (strain Charles River CD (Sprague-Dawley), females, inhaled, site: liver, lesion: neoplastic nodule, dosed 43 weeks, study length 95 weeks): 315 mg/kg/day
- TD50 (strain Charles River CD (Sprague-Dawley), males, inhaled, site: liver, lesion: hemangiosarcoma, dosed 43 weeks, study length 95 weeks): 103 mg/kg/day
- TD50 (strain Charles River CD (Sprague-Dawley), males, inhaled, site: liver, lesion: hepatocellular carcinoma, dosed 26 weeks, study length 78 weeks): 52.9 mg/kg/day
- TD50 (strain Charles River CD (Sprague-Dawley), males, inhaled, site: liver, lesion: hepatocellular carcinoma, dosed 43 weeks, study length 95 weeks): 265 mg/kg/day
- TD50 (strain Charles River CD (Sprague-Dawley), males, inhaled, site: liver, lesion: neoplastic nodule, dosed 26 weeks, study length 78 weeks): 11.5 mg/kg/day
- TD50 (strain Charles River CD (Sprague-Dawley), males, inhaled, site: liver, lesion: neoplastic nodule, dosed 43 weeks, study length 95 weeks): 34.6 mg/kg/day
- TD50 (strain Fischer 344, females, inhaled, site: all sites, lesion: hemangiosarcoma, dosed 26 weeks, study length 104 weeks): 91.2 mg/kg/day
- TD50 (strain Fischer 344, females, inhaled, site: all sites, lesion: hemangiosarcoma, dosed 52 weeks, study length 104 weeks): 29.5 mg/kg/day
- TD50 (strain Fischer 344, females, inhaled, site: all sites, lesion: hemangiosarcoma, dosed 78 weeks, study length 104 weeks): 32.8 mg/kg/day
- TD50 (strain Fischer 344, females, inhaled, site: all sites, lesion: hemangiosarcoma, dosed 104 weeks, study length 104 weeks): 23.6 mg/kg/day
- TD50 (strain Fischer 344, females, inhaled, site: liver, lesion: hepatocellular carcinoma, dosed 26 weeks, study length 104 weeks): 103 mg/kg/day
- TD50 (strain Fischer 344, females, inhaled, site: liver, lesion: hepatocellular carcinoma, dosed 52 weeks, study length 104 weeks): 101 mg/kg/day
- TD50 (strain Fischer 344, females, inhaled, site: liver, lesion: hepatocellular carcinoma, dosed 78 weeks, study length 104 weeks): 65.2 mg/kg/day
- TD50 (strain Fischer 344, females, inhaled, site: liver, lesion: hepatocellular carcinoma, dosed 104 weeks, study length 104 weeks): 77.2 mg/kg/day
- TD50 (strain Fischer 344, females, inhaled, site: liver, lesion: neoplastic nodule, dosed 26 weeks, study length 104 weeks): 17.6 mg/kg/day
- TD50 (strain Fischer 344, females, inhaled, site: liver, lesion: neoplastic nodule, dosed 52 weeks, study length 104 weeks): 16.2 mg/kg/day
- TD50 (strain Fischer 344, females, inhaled, site: liver, lesion: neoplastic nodule, dosed 78 weeks, study length 104 weeks): 96.3 mg/kg/day
- TD50 (strain Fischer 344, females, inhaled, site: liver, lesion: neoplastic nodule, dosed 104 weeks, study length 104 weeks): 166 mg/kg/day
- TD50 (strain Fischer 344, females, inhaled, site: mammary gland, lesion: adenocarcinoma, dosed 52 weeks, study length 104 weeks): 38 mg/kg/day
- TD50 (strain Fischer 344, females, inhaled, site: mammary gland, lesion: adenocarcinoma, dosed 78 weeks, study length 104 weeks): 74.2 mg/kg/day
- TD50 (strain Fischer 344, females, inhaled, site: mammary gland, lesion: adenocarcinoma, dosed 104 weeks, study length 104 weeks): 264 mg/kg/day
- TD50 (strain Fischer 344, females, inhaled, site: mammary gland, lesion: fibroadenoma, dosed 26 weeks, study length 104 weeks): 15.1 mg/kg/day
- TD50 (strain Fischer 344, females, inhaled, site: mammary gland, lesion: fibroadenoma, dosed 52 weeks, study length 104 weeks): 14.6 mg/kg/day
- TD50 (strain Fischer 344, females, inhaled, site: mammary gland, lesion: fibroadenoma, dosed 78 weeks, study length 104 weeks): 29.7 mg/kg/day
- TD50 (strain Fischer 344, females, inhaled, site: mammary gland, lesion: fibroadenoma, dosed 104 weeks, study length 104 weeks): 32.9 mg/kg/day
- TD50 (strain Sprague-Dawley, females, by gavage, site: Zymbal's gland, lesion: carcinoma, dosed 59 weeks, study length 129 weeks): 5.05 mg/kg/day
- TD50 (strain Sprague-Dawley, females, by gavage, site: any site (literature study), lesion: several types, types named in the paper, dosed 52 weeks, study length 127 weeks): 35.2 mg/kg/day
- TD50 (strain Sprague-Dawley, females, by gavage, site: any site (literature study), lesion: several types, types named in the paper, dosed 59 weeks, study length 129 weeks): 0.878 mg/kg/day
- TD50 (strain Sprague-Dawley, females, by gavage, site: extrahepatic tissue, lesion: angioma, dosed 52 weeks, study length 127 weeks): 408 mg/kg/day
- TD50 (strain Sprague-Dawley, females, by gavage, site: extrahepatic tissue, lesion: angiosarcoma, dosed 52 weeks, study length 127 weeks): 454 mg/kg/day
- TD50 (strain Sprague-Dawley, females, by gavage, site: extrahepatic tissue, lesion: angiosarcoma, dosed 59 weeks, study length 129 weeks): 10.9 mg/kg/day
- TD50 (strain Sprague-Dawley, females, by gavage, site: kidney, lesion: nephroblastoma, dosed 52 weeks, study length 127 weeks): 182 mg/kg/day
- TD50 (strain Sprague-Dawley, females, by gavage, site: liver, lesion: angioma, dosed 52 weeks, study length 127 weeks): 207 mg/kg/day
- TD50 (strain Sprague-Dawley, females, by gavage, site: liver, lesion: angiosarcoma, dosed 52 weeks, study length 127 weeks): 38.6 mg/kg/day
- TD50 (strain Sprague-Dawley, females, by gavage, site: liver, lesion: angiosarcoma, dosed 59 weeks, study length 129 weeks): 3.58 mg/kg/day
- TD50 (strain Sprague-Dawley, females, inhaled, site: Zymbal's gland, lesion: carcinoma, dosed 25 weeks, study length 127 weeks): 1200 mg/kg/day
- TD50 (strain Sprague-Dawley, females, inhaled, site: Zymbal's gland, lesion: carcinoma, dosed 25 weeks, study length 135 weeks): 569 mg/kg/day
- TD50 (strain Sprague-Dawley, females, inhaled, site: Zymbal's gland, lesion: carcinoma, dosed 52 weeks, study length 111 weeks): 67.9 mg/kg/day
- TD50 (strain Sprague-Dawley, females, inhaled, site: Zymbal's gland, lesion: carcinoma, dosed 52 weeks, study length 139 weeks): 1070 mg/kg/day
- TD50 (strain Sprague-Dawley, females, inhaled, site: Zymbal's gland, lesion: carcinoma, dosed 71 weeks, study length 71 weeks): 1190 mg/kg/day
- TD50 (strain Sprague-Dawley, females, inhaled, site: any site (literature study), lesion: several types, types named in the paper, dosed 25 weeks, study length 127 weeks): 309 mg/kg/day
- TD50 (strain Sprague-Dawley, females, inhaled, site: any site (literature study), lesion: several types, types named in the paper, dosed 25 weeks, study length 135 weeks): 51.5 mg/kg/day
- TD50 (strain Sprague-Dawley, females, inhaled, site: any site (literature study), lesion: several types, types named in the paper, dosed 52 weeks, study length 111 weeks): 2.12 mg/kg/day
- TD50 (strain Sprague-Dawley, females, inhaled, site: any site (literature study), lesion: several types, types named in the paper, dosed 52 weeks, study length 139 weeks): 37.4 mg/kg/day
- TD50 (strain Sprague-Dawley, females, inhaled, site: any site (literature study), lesion: several types, types named in the paper, dosed 71 weeks, study length 71 weeks): 70.5 mg/kg/day
- TD50 (strain Sprague-Dawley, females, inhaled, site: brain, lesion: neuroblastoma, dosed 25 weeks, study length 135 weeks): 3630 mg/kg/day
- TD50 (strain Sprague-Dawley, females, inhaled, site: brain, lesion: neuroblastoma, dosed 52 weeks, study length 131 weeks): 4850 mg/kg/day
- TD50 (strain Sprague-Dawley, females, inhaled, site: brain, lesion: neuroblastoma, dosed 71 weeks, study length 71 weeks): 184 mg/kg/day
- TD50 (strain Sprague-Dawley, females, inhaled, site: extrahepatic tissue, lesion: angioma, dosed 25 weeks, study length 135 weeks): 2990 mg/kg/day
